Laboratory results published in patent publication US10723741B1, “DNA polymerase IIIC inhibitors and use thereof” (Acurx Pharmaceuticals, LLC, priority 2018, dated 2020).
≈ marks a conversion by molar mass, not a printed value. Read-outs that look alike come from different tables or passages of the source.

Assays:
Assay type in all cases: cell-based
[1] = test system: Staphylococcus aureus NRS384 (MRSA); experiment: Broth microdilution MIC, S. aureus NRS384 (MRSA); details: Staphylococcus aureus, broth microdilution, 37° C., 20 hours, read-out: MIC NRS 384 (MRSA)
Outline: (§1)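 Two-fold dilutions from 64 to 0.0625 μg/ml final, 1% DMSO, were inoculated at ~5.0×10^5 cfu/ml in the strain's test medium and kept 20 h at 37 °C in ambient atmosphere. Colonies were grown on MHA, with S. pneumoniae on blood agar under 5% CO2.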

[2] = test system: Staphylococcus aureus ATCC 29213 (MSSA); experiment: Broth microdilution MIC, S. aureus ATCC 29213 (MSSA); details: broth microdilution, 37° C., 20 hours, read-out: MIC S. aureus ATCC 29213 (MSSA)
Outline: as §1

[3] = test system: Enterococcus faecalis ATCC 29212; experiment: Broth microdilution MIC, E. faecalis ATCC 29212; details: ATCC29212, broth microdilution, 37° C., 20 hours, read-out: MIC E. faecalis ATCC 29212
Outline: as §1

[4] = test system: Enterococcus faecium ATCC 700221 (VRE); experiment: Broth microdilution MIC, E. faecium ATCC 700221 (VRE); details: Enterococcus faecium; broth microdilution, 37° C., 20 hours; read-out: MIC E. faecium ATCC 700221 (VRE)
Outline: as §1

[5] = test system: Streptococcus pneumoniae ATCC 49619; experiment: Broth microdilution MIC, S. pneumoniae ATCC 49619; details: ATCC49619, broth microdilution, 37° C., 20 hours, read-out: MIC S. pneumoniae ATCC 49619
Outline: as §1

[6] = test system: Bacillus subtilis ATCC 6633; experiment: Broth microdilution MIC, B. subtilis ATCC 6633; details: ATCC6633, broth microdilution, 37° C., 20 hours, read-out: MIC B. subtilis ATCC 6633
Outline: as §1

[7] = test system: Escherichia coli ATCC 25922; experiment: Broth microdilution MIC, E. coli ATCC 25922 (MHIIB w & w/o 4 mM EDTA); details: broth microdilution, 37° C., 20 hours; for MIC: Escherichia coli, ATCC25922, without EDTA, read-out: MIC E. coli ATCC 25922; for MIC E. coli ATCC 25922 + 4 mM EDTA: with 4 mM EDTA
Outline: as §1

| MIC [1] [µg/mL] | MIC [2] [µg/mL] | MIC [3] [µg/mL] | MIC [4] [µg/mL] | MIC [5] [µg/mL] | MIC [6] [µg/mL] | MIC [7] [µg/mL] | MIC E. coli ATCC 25922 + 4 mM EDTA [7] [µg/mL] | MIC ([1]; S. aureus NRS 384) [µg/mL] | SMILES |
| --- | --- | --- | --- | --- | --- | --- | --- | --- | --- |
| 4 | 4 | 4 | 2 | 4 | 1 | > 64 | >64 | – | COc1cncc(C(=O)N2CCC(n3ncc4nc(NCc5ccc(Cl)c(Cl)c5)[nH]c(=O)c43)CC2)c1.Cl [Compound 260, 5-((3,4-Dichlorobenzyl)amino)-1-(1-(5-methoxynicotinoyl)piperidin-4-yl)-1H-pyrazolo[4,3-d]pyrimidin-7(6H)-one hydrochloride] |
| > 64 | > 64 | 64 (≈ 167 µM) | 64 (≈ 167 µM) | 16 (≈ 41.9 µM) | > 64 | > 64 | >64 | – | O=C(O)CCn1ncc2nc(NCc3ccc(Cl)c(Cl)c3)[nH]c(=O)c21 [Compound 229, 3-(5-((3,4-dichlorobenzyl)amino)-7-oxo-6,7-dihydro-1H-pyrazolo[4,3-d]pyrimidin-1-yl)propanoic Acid] |
| 8 (≈ 17.8 µM) | 8 (≈ 17.8 µM) | 8 (≈ 17.8 µM) | 2 (≈ 4.44 µM) | 4 (≈ 8.88 µM) | 4 (≈ 8.88 µM) | > 64 | >64 | – | CN1CCN(CCn2ncc3nc(NCc4ccc(Cl)c(Cl)c4)[nH]c(=O)c32)CC1=O [Compound 60, 5-((3,4-Dichlorobenzyl)amino)-1-(2-(4-methyl-3-oxopiperazin-1-yl)ethyl)-1H-pyrazolo[4,3-d]pyrimidin-7(6H)-one] |
| > 64 | > 64 | > 64 | > 64 | 64 | > 64 | > 64 | >64 | – | Cl.O=C(O)C1CC(n2ncc3nc(NCc4ccc(Cl)c(Cl)c4)[nH]c(=O)c32)CN1 (stereo not drawn) [Compound 151, 4-(5-((3,4-dichlorobenzyl)amino)-7-oxo-6,7-dihydro-1H-pyrazolo[4,3-d]pyrimidin-1-yl)pyrrolidine-2-carboxylic acid hydrochloride] |
| 64 | > 64 | 64 | 64 | 32 | 32 | > 64 | 64 | – | Cl.O=c1[nH]c(NCc2ccc(Cl)c(Cl)c2)nc2cnn(CCNC3=NCCN3)c12 [Compound 295, 5-((3,4-Dichlorobenzyl)amino)-1-(2-((4,5-dihydro-1H-imidazol-2-yl)amino)ethyl)-1H-pyrazolo[4,3-d]pyrimidin-7(6H)-one hydrochloride] |
| 64 | 32 | 32 | 32 | 8 | 8 | > 64 | 64 | – | Cl.Cl.O=c1[nH]c(NCc2ccc(Cl)c(Cl)c2)nc2cnn(C3CCN(CC4CCNCC4)CC3)c12 [Compound 247, 5-((3,4-dichlorobenzyl)amino)-1-(1-(piperidin-4-ylmethyl)piperidin-4-yl)-1H-pyrazolo[4,3-d]pyrimidin-7(6H)-one dihydrochloride] |
| 8 (≈ 26 µM) | 8 (≈ 26 µM) | > 64 | 8 (≈ 26 µM) | 4 (≈ 13 µM) | 8 (≈ 26 µM) | > 64 | >64 | – | Cn1ncc2nc(NCc3ccc(F)c(Cl)c3)[nH]c(=O)c21 [Compound 24, 5-((3-Chloro-4-fluorobenzyl)amino)-1-methyl-1H-pyrazolo[4,3-d]pyrimidin-7(6H)-one] |
| 64 (≈ 152 µM) | 32 (≈ 75.8 µM) | 64 (≈ 152 µM) | 16 (≈ 37.9 µM) | 16 (≈ 37.9 µM) | 8 (≈ 18.9 µM) | > 64 | >64 | – | O=c1[nH]c(NCc2ccc(Cl)c(Cl)c2)nc2cnn(CCN3CCNCC3)c12 [Compound 74, 5-((3,4-dichlorobenzyl)amino)-1-(2-(piperazin-1-yl)ethyl)-1H-pyrazolo[4,3-d]pyrimidin-7(6H)-one] |
| > 64 | > 64 | > 64 | > 64 | > 64 | > 64 | > 64 | >64 | – | COC(=O)c1nn(C)c2c(=O)[nH]c(NCc3ccc(Cl)c(Cl)c3)nc12 [Compound 40, Methyl 5-((3,4-dichlorobenzyl)amino)-1-methyl-7-oxo-6,7-dihydro-1H-pyrazolo[4,3-d]pyrimidine-3-carboxylate] |
| 8 (≈ 20 µM) | 8 (≈ 20 µM) | 4 (≈ 9.99 µM) | 2 (≈ 5 µM) | 4 (≈ 9.99 µM) | 4 (≈ 9.99 µM) | > 64 | >64 | – | [2H]C([2H])(O)COCCn1ncc2nc(NCc3ccc(Cl)c(Cl)c3)[nH]c(=O)c21 [Compound 286, 5-[(3,4-dichlorophenyl)methylamino]-1-[2-(2,2-dideuterio-2-hydroxyl-ethoxy)ethyl]-6H-pyrazolo[4,3-d]pyrimidin-7-one] |
| > 64 | > 64 | > 64 | > 64 | > 64 | > 64 | > 64 | >64 | – | Cn1ncc2nc(NCc3cscn3)[nH]c(=O)c21 [Compound 15, 1-Methyl-5-((thiazol-4-ylmethyl)amino)-1H-pyrazolo[4,3-d]pyrimidin-7(6H)-one] |
| – | 64 (≈ 150 µM) | > 64 | 32 (≈ 74.9 µM) | 16 (≈ 37.4 µM) | 16 (≈ 37.4 µM) | > 64 | >64 | 32 (≈ 74.9 µM) | CP(C)(=O)CCCCn1nc(F)c2nc(NCc3ccc(F)c(F)c3)[nH]c(=O)c21 [Compound 314, 5-[(3,4-Difluorophenyl)methylamino]-1-(4-dimethylphosphorylbutyl)-3-fluoro-6H-pyrazolo[4,3-d]pyrimidin-7-one] |
| > 64 | > 64 | > 64 | > 64 | > 64 | > 64 | > 64 | >64 | – | Cl.O=C(O)c1ccc(OCCn2ncc3nc(NCc4ccc(Cl)c(Cl)c4)[nH]c(=O)c32)cn1 [Compound 175, 5-(2-(5-((3,4-dichlorobenzyl)amino)-7-oxo-6,7-dihydro-1H-pyrazolo[4,3-d]pyrimidin-1-yl)ethoxy)picolinic acid hydrochloride] |
| – | 4 (≈ 7.75 µM) | 4 (≈ 7.75 µM) | 2 (≈ 3.87 µM) | 4 (≈ 7.75 µM) | 1 (≈ 1.94 µM) | > 64 | >64 | 4 (≈ 7.75 µM) | O=C(c1cccnc1)N1CCC(n2nc(F)c3nc(NCc4ccc(Cl)c(Cl)c4)[nH]c(=O)c32)CC1 [Compound 317, 5-[(3,4-Dichlorophenyl)methylamino]-3-fluoro-1-[1-(pyridine-3-carbonyl)-4-piperidyl]-6H-pyrazolo[4,3-d]pyrimidin-7-one] |
| 4 (≈ 10.5 µM) | 2 (≈ 5.26 µM) | 4 (≈ 10.5 µM) | 2 (≈ 5.26 µM) | 4 (≈ 10.5 µM) | 1 (≈ 2.63 µM) | > 64 | >64 | – | O=c1[nH]c(NCc2ccc(Cl)c(Cl)c2)nc2cnn(C3CCOC3)c12 (stereo not drawn) [Compound 119, 5-((3,4-Dichlorobenzyl)amino)-1-(tetrahydrofuran-3-yl)-1H-pyrazolo[4,3-d]pyrimidin-7(6H)-one] |
| 16 (≈ 35.4 µM) | 16 (≈ 35.4 µM) | 16 (≈ 35.4 µM) | 16 (≈ 35.4 µM) | 16 (≈ 35.4 µM) | 4 (≈ 8.86 µM) | > 64 | >64 | – | CNC(=O)C(C)(C)CCCn1ncc2nc(NCc3ccc(Cl)c(Cl)c3)[nH]c(=O)c21 [Compound 198, 5-(5-((3,4-dichlorobenzyl)amino)-7-oxo-6,7-dihydro-1H-pyrazolo[4,3-d]pyrimidin-1-yl)-N,2,2-trimethylpentanamide] |
| > 64 | > 64 | > 64 | > 64 | > 64 | > 64 | > 64 | >64 | – | Cl.O=C(O)C1(Cn2ncc3nc(NCc4ccc(Cl)c(Cl)c4)[nH]c(=O)c32)CCNCC1 [Compound 196, 4-((5-((3,4-dichlorobenzyl)amino)-7-oxo-6,7-dihydro-1H-pyrazolo[4,3-d]pyrimidin-1-yl)methyl)piperidine-4-carboxylic acid hydrochloride] |
| > 64 | > 64 | > 64 | > 64 | > 64 | > 64 | > 64 | >64 | – | Cl.O=c1[nH]c(NCc2ccc(Cl)c(Cl)c2)nc2cnn(CCOCc3nn[nH]n3)c12 [Compound 282, 1-(2-((2H-tetrazol-5-yl)methoxy)ethyl)-5-((3,4-dichlorobenzyl)amino)-1H-pyrazolo[4,3-d]pyrimidin-7(6H)-one hydrochloride] |
